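Growth conditions: 96-well plates. Treatment: test compound, 48 hours, 5 concentrations. Analysis: linear interpolation between bracketing concentrations; unreached endpoints set to highest concentration. GI50 is the concentration that inhibits growth by half. At the TGI there is no net growth.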

This note sets out measurements from PubChem BioAssay (NCI).

Test systems include HCT-116 colon; HOP-62 NSCLC; OVCAR-8 ovarian; SNB-19 CNS; CCRF-CEM leukemia; NCI-H23 lung; HCC-2998 colon; SK-MEL-2 melanoma; RPMI-8226 leukemia; SNB-75 CNS.
Assay in all cases: NCI-60 cell line screen, 48 h

Turning to `C[N+](C)=c1nc(N2CCOCC2)ss1`, the TGI in the test with HCT-116 colon, with HOP-62 NSCLC, in the test on OVCAR-8 ovarian, in the test on SNB-19 CNS, with CCRF-CEM leukemia and in the test with NCI-H23 lung was above 100 µM in each case. For the same molecule, the TGI with HCC-2998 colon and in the test on SK-MEL-2 melanoma was above 100 µM each time.

Regarding `COC(=O)c1cc2c3c(ccc2[nH]1)N(C(=O)c1cc2c4c(ccc2[nH]1)N(C(=O)c1cc2c5c(ccc2[nH]1)N(C(N)=O)CC5)CC4)CC3`, the TGI in the test with HCT-116 colon was above 100 µM; in the test with HOP-62 NSCLC, 7.83 µM; with OVCAR-8 ovarian it was above 30.8 µM; with SNB-19 CNS, 12.6 µM; with CCRF-CEM leukemia, above 51.2 µM; with RPMI-8226 leukemia it was above 100 µM. Moreover, the TGI was above 100 µM in the test with NCI-H23 lung, above 100 µM with HCC-2998 colon and above 24.4 µM in the test on SK-MEL-2 melanoma.

With `COc1ccc(/C=C(/C(=O)n2cnnn2)c2cc(OC)c(OC)c(OC)c2)cc1`, the GI50 is 3.08 µM with HCT-116 colon; 4.82 µM in the test with HOP-62 NSCLC; 3.66 µM in the test on OVCAR-8 ovarian; 4.25 µM in the test on SNB-19 CNS; 3.44 µM in the test with CCRF-CEM leukemia; 3.68 µM with RPMI-8226 leukemia. The values for the GI50 in the test on NCI-H23 lung, with SNB-75 CNS and in the test on SK-MEL-2 melanoma were 5.54 µM, 3.34 µM and 6.64 µM, respectively. Besides, the TGI in the test on HCT-116 colon, with HOP-62 NSCLC, in the test with OVCAR-8 ovarian, in the test on SNB-19 CNS, in the test on CCRF-CEM leukemia and in the test on RPMI-8226 leukemia was above 100 µM each time. In addition, the TGI with NCI-H23 lung, in the test on SNB-75 CNS and in the test on SK-MEL-2 melanoma was above 100 µM in each case.

`O=[N+]([O-])C1C2C=CC(C2)[C@H]1c1ccc(Cl)cc1Cl` (some centres undefined): the TGI with HCT-116 colon is above 100 µM; in the test with OVCAR-8 ovarian it was above 100 µM; in the test on SNB-19 CNS, above 100 µM; in the test with CCRF-CEM leukemia, above 100 µM; in the test with RPMI-8226 leukemia, 69.1 µM; with NCI-H23 lung, above 100 µM. For the same molecule, the TGI in the test with HCC-2998 colon, in the test on SNB-75 CNS and with SK-MEL-2 melanoma was above 100 µM throughout.

Take `COc1ccc(C2ONC3=NCCN32)cc1` (centres undefined): the GI50 in the test with HCT-116 colon is 40.4 µM; in the test on HOP-62 NSCLC, 84.9 µM; with OVCAR-8 ovarian it was 67.7 µM; in the test with SNB-19 CNS, above 100 µM; with CCRF-CEM leukemia, 26.6 µM; with NCI-H23 lung, above 100 µM. In addition, the GI50 in the test with HCC-2998 colon is 49.7 µM; in the test with SNB-75 CNS it was above 100 µM; in the test with SK-MEL-2 melanoma, above 100 µM. For the same molecule, the TGI in the test with HCT-116 colon is above 100 µM; in the test on HOP-62 NSCLC it was above 100 µM; with OVCAR-8 ovarian, above 100 µM; in the test on SNB-19 CNS it was above 100 µM; with CCRF-CEM leukemia, 61.7 µM; in the test with NCI-H23 lung it was above 100 µM. The TGI with HCC-2998 colon, in the test with SNB-75 CNS and in the test on SK-MEL-2 melanoma was above 100 µM throughout.

With `CCCn1cnc2c(SCc3ccccc3)nc(N)nc21`, the GI50 was 63 µM in the test with HCT-116 colon; above 100 µM in the test on HOP-62 NSCLC; 71.8 µM in the test with OVCAR-8 ovarian; above 100 µM in the test with SNB-19 CNS; 72.9 µM with CCRF-CEM leukemia; 41.6 µM in the test with RPMI-8226 leukemia. In addition, the GI50 with NCI-H23 lung, with HCC-2998 colon and in the test on SNB-75 CNS was above 100 µM throughout. For the same molecule, the TGI in the test with HCT-116 colon, with HOP-62 NSCLC, in the test on OVCAR-8 ovarian, with SNB-19 CNS, in the test with CCRF-CEM leukemia and with RPMI-8226 leukemia was above 100 µM in each case. Further, the TGI with NCI-H23 lung, with HCC-2998 colon and with SNB-75 CNS was above 100 µM throughout.

Regarding `COc1cc([C@H]2c3[nH]c4ccccc4c3C[C@H]3COC(=O)N32)cc(OC)c1O`, the TGI is 51.2 µM in the test with HCT-116 colon; 34.2 µM in the test on HOP-62 NSCLC; 63.9 µM in the test on OVCAR-8 ovarian; above 100 µM in the test with SNB-19 CNS; 12.4 µM in the test with CCRF-CEM leukemia; 11.1 µM with RPMI-8226 leukemia. Besides, the TGI in the test with NCI-H23 lung is 17.1 µM; in the test on HCC-2998 colon, 27 µM; with SNB-75 CNS, 3.2 µM.

As to `CC(C)(C)c1cc(CCC(=O)Nc2ccc(Cl)cc2Cl)nc(N)n1`, the TGI with HCT-116 colon, in the test on HOP-62 NSCLC, in the test with OVCAR-8 ovarian, with SNB-19 CNS, with CCRF-CEM leukemia and in the test with NCI-H23 lung was above 100 µM in each case. The TGI in the test with HCC-2998 colon and in the test on SK-MEL-2 melanoma was above 100 µM each time.

Turning to `O=C1C(c2ccccc2)=C(c2ccccc2)[C@H](c2ccccc2)[C@]1(Cc1nnn(-c2ccc([N+](=O)[O-])cc2)c1N1CCOCC1)c1ccccc1`, the TGI in the test on HCT-116 colon, in the test on HOP-62 NSCLC, in the test on OVCAR-8 ovarian, in the test on SNB-19 CNS, in the test on CCRF-CEM leukemia and in the test on RPMI-8226 leukemia was above 37.5 µM each time. Also, the TGI with NCI-H23 lung, in the test with HCC-2998 colon and in the test with SNB-75 CNS was above 37.5 µM each time.

`C=C(CNCCc1ccc(O)cc1)[C@@H]1CC[C@]2(CO)CC[C@]3(C)[C@H](CC[C@@H]4[C@@]5(C)CCC(N)C(C)(C)[C@@H]5CC[C@]43C)[C@@H]12` (some centres undefined): the GI50 is 1.73 µM in the test with HOP-62 NSCLC; 0.0235 µM in the test on OVCAR-8 ovarian; 1.22 µM with SNB-19 CNS; 0.28 µM with CCRF-CEM leukemia; 1.44 µM in the test on RPMI-8226 leukemia; 1.66 µM in the test on HCC-2998 colon. In addition, the GI50 in the test with SNB-75 CNS was 1.24 µM; in the test on SK-MEL-2 melanoma, 1.79 µM. Further, the TGI was 3.36 µM in the test with HOP-62 NSCLC; 1.39 µM in the test with OVCAR-8 ovarian; 2.53 µM in the test on SNB-19 CNS; 1.23 µM with CCRF-CEM leukemia; 4.04 µM in the test on RPMI-8226 leukemia; 3.3 µM in the test with HCC-2998 colon. Besides, the results for the TGI with SNB-75 CNS and in the test with SK-MEL-2 melanoma were 2.49 µM and 3.4 µM, respectively.

For `CC(C)(C)[Si](C)(C)OCC1OC(n2cnc3c(N)ncnc32)C(O)C1O` (centres undefined), the TGI in the test with HCT-116 colon, with HOP-62 NSCLC, with OVCAR-8 ovarian, with SNB-19 CNS, with CCRF-CEM leukemia and in the test on RPMI-8226 leukemia was above 100 µM each time. Further, the TGI in the test with NCI-H23 lung, in the test on SNB-75 CNS and in the test on SK-MEL-2 melanoma was above 100 µM throughout.

Take `O=C(O)[C@@H]1CCCC[C@@H]1C(=O)N(C1CCCCC1)C1CCCCC1`: the TGI in the test with HCT-116 colon, with HOP-62 NSCLC, with OVCAR-8 ovarian, in the test with CCRF-CEM leukemia, in the test with RPMI-8226 leukemia and in the test with NCI-H23 lung was above 100 µM throughout. The TGI in the test on HCC-2998 colon, in the test with SNB-75 CNS and with SK-MEL-2 melanoma was above 100 µM throughout.

As to `COc1ccc(CC2=NCCc3cc(OC)c(OC)cc32)cc1Br`, the TGI with HOP-62 NSCLC was above 100 µM; in the test on OVCAR-8 ovarian, above 100 µM; in the test with SNB-19 CNS it was above 100 µM; in the test with CCRF-CEM leukemia, above 100 µM; in the test with NCI-H23 lung it was above 100 µM; with HCC-2998 colon, 35.6 µM. For the same molecule, in the test with SK-MEL-2 melanoma, the TGI was above 100 µM.

Consider `COc1nc2c(c(O)c(C)c(=O)n2OC2OC(COC(C)=O)C(OC(C)=O)C(OC(C)=O)C2OC(C)=O)c(=O)n1C` (centres undefined), for which the TGI with HCT-116 colon, with HOP-62 NSCLC, in the test on OVCAR-8 ovarian, with SNB-19 CNS, in the test with CCRF-CEM leukemia and in the test with NCI-H23 lung was above 100 µM throughout. Besides, the TGI with HCC-2998 colon, with SNB-75 CNS and with SK-MEL-2 melanoma was above 100 µM throughout.

Regarding `COc1ccc(C2NCCc3c2[nH]c2ccccc32)cc1` (centres undefined), the TGI in the test with HCT-116 colon, with HOP-62 NSCLC, with OVCAR-8 ovarian, with SNB-19 CNS, with CCRF-CEM leukemia and with RPMI-8226 leukemia was above 100 µM each time. The values for the TGI with NCI-H23 lung, in the test on HCC-2998 colon and with SNB-75 CNS were above 100 µM, 65.1 µM and above 100 µM, respectively.

For `CC1(C)CC(=O)c2c(oc3cc(O)c(O)cc23)C1`, the TGI in the test on HOP-62 NSCLC is above 100 µM; in the test with OVCAR-8 ovarian it was 55.6 µM; in the test with SNB-19 CNS it was above 100 µM; with CCRF-CEM leukemia it was 92 µM; with RPMI-8226 leukemia, 80.4 µM; in the test with HCC-2998 colon it was above 100 µM. Moreover, the values for the TGI in the test on SNB-75 CNS and in the test with SK-MEL-2 melanoma were above 100 µM and 76.8 µM, respectively.

With `CCCCCCCCCCCCCCCCS(=O)(=O)c1ccc(NN)cc1`, the TGI was above 10 µM with HCT-116 colon; above 10 µM with HOP-62 NSCLC; above 10 µM in the test with OVCAR-8 ovarian; above 10 µM with SNB-19 CNS; 4.34 µM in the test on CCRF-CEM leukemia; above 10 µM in the test with RPMI-8226 leukemia. Moreover, the TGI in the test on NCI-H23 lung, in the test with HCC-2998 colon and in the test with SK-MEL-2 melanoma was above 10 µM each time.

For `CC[P+]1(CC)CCCC1`, the TGI with HOP-62 NSCLC, in the test with OVCAR-8 ovarian, in the test with SNB-19 CNS, in the test with CCRF-CEM leukemia, in the test on RPMI-8226 leukemia and with NCI-H23 lung was above 100 µM throughout. The TGI with HCC-2998 colon, with SNB-75 CNS and in the test on SK-MEL-2 melanoma was above 100 µM throughout.

On to `C/C(=N/NC(=O)CC(=O)N(C(=O)c1ccccc1Cl)c1ccc(C)cc1)c1cc2ccccc2oc1=O`, for which the TGI with HCT-116 colon, in the test on HOP-62 NSCLC, in the test on OVCAR-8 ovarian, in the test on SNB-19 CNS, in the test with CCRF-CEM leukemia and in the test on NCI-H23 lung was above 100 µM in each case. The TGI with HCC-2998 colon and with SNB-75 CNS was above 100 µM each time.
